Measurements from ChEMBL document CHEMBL1649156, “Antianaerobic activity of sulopenem compared to six other agents” (2009).

How the values were obtained:
Format in all cases: functional
Anaerococcus tetradius = assay: Antimicrobial activity in Anaerococcus tetradius by CLSI agar dilution method in presence of clavulanate
Fusobacterium varium = assay: Antimicrobial activity in Fusobacterium varium by CLSI agar dilution method in presence of clavulanate
[1] = tested on: Paeniclostridium sordellii; assay: Antimicrobial activity in Clostridium sordellii by CLSI agar dilution method in presence of clavulanate; settings: Paraclostridium sordellii
Prevotella intermedia = assay: Antimicrobial activity in Prevotella intermedia by CLSI agar dilution method in presence of clavulanate
Prevotella nigrescens = assay: Antimicrobial activity in Prevotella nigrescens by CLSI agar dilution method in presence of clavulanate
Finegoldia magna = assay: Antimicrobial activity in Finegoldia magna by CLSI agar dilution method in presence of clavulanate
Anaerococcus prevotii = assay: Antimicrobial activity in Anaerococcus prevotii by CLSI agar dilution method in presence of clavulanate
Prevotella salivae = assay: Antimicrobial activity in Prevotella salivae by CLSI agar dilution method in presence of clavulanate; settings: Segatella salivae
Hoylesella oralis = assay: Antimicrobial activity in Prevotella oralis group by CLSI agar dilution method in presence of clavulanate
Clostridium cadaveris = assay: Antimicrobial activity in Clostridium cadaveris by CLSI agar dilution method in presence of clavulanate
Lactobacillus = assay: Antimicrobial activity in Lactobacillus by CLSI agar dilution method in presence of clavulanate
[2] = tested on: Peptostreptococcus anaerobius; assay: Antimicrobial activity in Peptostreptococcus anaerobius by CLSI agar dilution method in presence of clavulanate
Thomasclavelia ramosa = assay: Antimicrobial activity in Clostridium ramosum by CLSI agar dilution method in presence of clavulanate
[3] = tested on: Peptoniphilus asaccharolyticus; assay: Antimicrobial activity in Peptoniphilus asaccharolyticus by CLSI agar dilution method in presence of clavulanate
Bacteroides stercoris = assay: Antimicrobial activity in Bacteroides stercoris by CLSI agar dilution method in presence of clavulanate
Parvimonas micra = assay: Antimicrobial activity in Micromonas micros by CLSI agar dilution method in presence of clavulanate
Tissierella praeacuta = assay: Antimicrobial activity in Clostridium hastiforme by CLSI agar dilution method in presence of clavulanate
Clostridium perfringens = assay: Antimicrobial activity in Clostridium perfringens by CLSI agar dilution method in presence of clavulanate
[Clostridium] innocuum = Antimicrobial activity in Clostridium innocuum by CLSI agar dilution method in presence of clavulanate
Prevotella denticola = assay: Antimicrobial activity in Prevotella denticola by CLSI agar dilution method in presence of clavulanate
Bifidobacterium = assay: Antimicrobial activity in Bifidobacterium by CLSI agar dilution method in presence of clavulanate
Eggerthella lenta = assay: Antimicrobial activity in Eggerthella lenta by CLSI agar dilution method in presence of clavulanate
Prevotella sp. = assay: Antimicrobial activity in Prevotella sp.by CLSI agar dilution method in presence of clavulanate
[4] = tested on: Porphyromonas asaccharolytica; assay: Antimicrobial activity in Porphyromonas asaccharolytica by CLSI agar dilution method in presence of clavulanate
Bacteroides fragilis = assay: Antimicrobial activity in Bacteroides fragilis by CLSI agar dilution method in presence of clavulanate
Prevotella corporis = assay: Antimicrobial activity in Prevotella corporis by CLSI agar dilution method in presence of clavulanate
Clostridium sp. = assay: Antimicrobial activity in Clostridium sp. by CLSI agar dilution method in presence of clavulanate
Prevotella veroralis = assay: Antimicrobial activity in Prevotella veroralis by CLSI agar dilution method in presence of clavulanate
Clostridioides difficile = assay: Antimicrobial activity in Clostridium difficile by CLSI agar dilution method in presence of clavulanate
[5] = tested on: Bacteroides thetaiotaomicron; assay: Antimicrobial activity in Bacteroides thetaiotaomicron by CLSI agar dilution method in presence of clavulanate
Prevotella disiens = assay: Antimicrobial activity in Prevotella disiens by CLSI agar dilution method in presence of clavulanate
Cutibacterium acnes = assay: Antimicrobial activity in Propionibacterium acnes by CLSI agar dilution method in presence of clavulanate
[6] = tested on: Fusobacterium necrophorum; assay: Antimicrobial activity in Fusobacterium necrophorum by CLSI agar dilution method in presence of clavulanate
Bacteroides ovatus = assay: Antimicrobial activity in Bacteroides ovatus by CLSI agar dilution method in presence of clavulanate
Prevotella buccae = assay: Antimicrobial activity in Prevotella buccae by CLSI agar dilution method in presence of clavulanate; settings: Segatella buccae
Porphyromonas gingivalis = assay: Antimicrobial activity in Porphyromonas gingivalis by CLSI agar dilution method in presence of clavulanate
Fusobacterium nucleatum = assay: Antimicrobial activity in Fusobacterium nucleatum by CLSI agar dilution method in presence of clavulanate
Clostridium butyricum = assay: Antimicrobial activity in Clostridium butyricum by CLSI agar dilution method in presence of clavulanate
Phocaeicola vulgatus = assay: Antimicrobial activity in Bacteroides vulgatus by CLSI agar dilution method in presence of clavulanate
[7] = tested on: Paraclostridium bifermentans; assay: Antimicrobial activity in Clostridium bifermentans by CLSI agar dilution method in presence of clavulanate
Prevotella bivia = assay: Antimicrobial activity in Prevotella bivia by CLSI agar dilution method in presence of clavulanate
[8] = tested on: Parabacteroides distasonis; assay: Antimicrobial activity in Bacteroides distasonis by CLSI agar dilution method in presence of clavulanate
Actinomyces = assay: Antimicrobial activity in Actinomyces by CLSI agar dilution method in presence of clavulanate
[9] = tested on: Prevotella melaninogenica; assay: Antimicrobial activity in Prevotella melaninogenica by CLSI agar dilution method in presence of clavulanate
Prevotella bergensis = assay: Antimicrobial activity in Prevotella bergensis by CLSI agar dilution method in presence of clavulanate; settings: Hallella bergensis
Hoylesella loescheii = assay: Antimicrobial activity in Prevotella loescheii by CLSI agar dilution method in presence of clavulanate
Clostridium tertium = assay: Antimicrobial activity in Clostridium tertium by CLSI agar dilution method in presence of clavulanate
Bacteroides uniformis = assay: Antimicrobial activity in Bacteroides uniformis by CLSI agar dilution method in presence of clavulanate
Fusobacterium mortiferum = assay: Antimicrobial activity in Fusobacterium mortiferum by CLSI agar dilution method in presence of clavulanate
Prevotella baroniae = assay: Antimicrobial activity in Prevotella baroniae by CLSI agar dilution method in presence of clavulanate; settings: Segatella baroniae
[10] = tested on: Enterocloster clostridioformis; assay: Antimicrobial activity in Clostridium clostridioforme by CLSI agar dilution method in presence of clavulanate

## CC1(C)S[C@@H]2[C@H](NC(=O)[C@H](N)c3ccc(O)cc3)C(=O)N2[C@H]1C(=O)O [AMOXICILLIN]
Anaerococcus tetradius
  MIC: ≤ 0.125 µg/mL
  MIC50: ≤ 0.125 µg/mL
  MIC90: ≤ 0.125 µg/mL
Fusobacterium varium
  MIC50: 2 µg/mL
  MIC90: 2 µg/mL
[1]
  MIC: ≤ 0.125 µg/mL
Prevotella intermedia
  MIC: ≤ 0.125 µg/mL
  MIC50: ≤ 0.125 µg/mL
  MIC90: 0.5 µg/mL
Prevotella nigrescens
  MIC: ≤ 0.125 µg/mL
  MIC50: ≤ 0.125 µg/mL
  MIC90: 0.5 µg/mL
Finegoldia magna
  MIC50: 0.25 µg/mL
  MIC90: 0.25 µg/mL
Anaerococcus prevotii
  MIC: ≤ 0.125 µg/mL
Prevotella salivae
  MIC: ≤ 0.125 µg/mL
Hoylesella oralis
  MIC: ≤ 0.125 µg/mL
Clostridium cadaveris
  MIC: ≤ 0.125 µg/mL
Lactobacillus
  MIC50: 1 µg/mL
  MIC90: 1 µg/mL
[2]
  MIC50: 0.25 µg/mL
  MIC90: 32 µg/mL
Thomasclavelia ramosa
  MIC: ≤ 0.125 µg/mL
[3]
  MIC: ≤ 0.125 µg/mL
  MIC50: ≤ 0.125 µg/mL
Bacteroides stercoris
  MIC: 0.5 µg/mL
  MIC50: 1 µg/mL
Parvimonas micra
  MIC: ≤ 0.125 µg/mL
  MIC50: ≤ 0.125 µg/mL
  MIC90: 0.5 µg/mL
Tissierella praeacuta
  MIC: 1 µg/mL
Clostridium perfringens
  MIC: ≤ 0.125 µg/mL
  MIC50: ≤ 0.125 µg/mL
  MIC90: ≤ 0.125 µg/mL
[Clostridium] innocuum
  MIC: ≤ 0.125 µg/mL
Prevotella denticola
  MIC50: 0.25 µg/mL
  MIC90: 2 µg/mL
Bifidobacterium
  MIC: ≤ 0.125 µg/mL
  MIC50: ≤ 0.125 µg/mL
  MIC90: 0.25 µg/mL
Eggerthella lenta
  MIC50: 1 µg/mL
  MIC90: 1 µg/mL
Prevotella sp.
  MIC: ≤ 0.125 µg/mL
[4]
  MIC: ≤ 0.125 µg/mL
Bacteroides fragilis
  MIC50: 0.5 µg/mL
  MIC90: 2 µg/mL
Prevotella corporis
  MIC: ≤ 0.125 µg/mL
  MIC50: ≤ 0.125 µg/mL
Clostridium sp.
  MIC50: 0.5 µg/mL
  MIC90: 0.5 µg/mL
Prevotella veroralis
  MIC: ≤ 0.125 µg/mL
Clostridioides difficile
  MIC50: 1 µg/mL
  MIC90: 2 µg/mL
[5]
  MIC50: 1 µg/mL
  MIC90: 4 µg/mL
Prevotella disiens
  MIC: ≤ 0.125 µg/mL
  MIC50: 0.25 µg/mL
Cutibacterium acnes
  MIC: ≤ 0.125 µg/mL
  MIC50: ≤ 0.125 µg/mL
  MIC90: 0.25 µg/mL
[6]
  MIC: ≤ 0.125 µg/mL
  MIC50: ≤ 0.125 µg/mL
Bacteroides ovatus
  MIC: 0.5 µg/mL
  MIC50: 0.5 µg/mL
  MIC90: 2 µg/mL
Prevotella buccae
  MIC: ≤ 0.125 µg/mL
  MIC50: ≤ 0.125 µg/mL
  MIC90: 1 µg/mL
Porphyromonas gingivalis
  MIC: ≤ 0.125 µg/mL
Fusobacterium nucleatum
  MIC: ≤ 0.125 µg/mL
  MIC50: ≤ 0.125 µg/mL
  MIC90: ≤ 0.125 µg/mL
Clostridium butyricum
  MIC: 1 µg/mL
Phocaeicola vulgatus
  MIC50: 1 µg/mL
  MIC90: 8 µg/mL
[7]
  MIC: 0.25 µg/mL
Prevotella bivia
  MIC50: 0.5 µg/mL
  MIC90: 4 µg/mL
[8]
  MIC50: 4 µg/mL
  MIC90: 16 µg/mL
Actinomyces
  MIC: ≤ 0.125 µg/mL
  MIC50: 0.25 µg/mL
[9]
  MIC50: 0.25 µg/mL
  MIC90: 2 µg/mL
Prevotella bergensis
  MIC: 0.5 µg/mL
Hoylesella loescheii
  MIC: 0.25 µg/mL
Clostridium tertium
  MIC: 0.5 µg/mL
  MIC50: 0.5 µg/mL
Bacteroides uniformis
  MIC: 0.5 µg/mL
  MIC50: 0.5 µg/mL
Fusobacterium mortiferum
  MIC50: 1 µg/mL
  MIC90: 32 µg/mL
Prevotella baroniae
  MIC: ≤ 0.125 µg/mL
[10]
  MIC: 1 µg/mL
